Experimental data as given in publication PMC8661510, “Computational study, synthesis and evaluation of active peptides derived from Parasporin-2 and spike protein from Alphacoronavirus against colorectal cancer cells” (Bioscience Reports, 2021).
Where two headings read alike, the source gives them in different places. No end group written: not given here.

Experiments:
SW480 cells [1] = assay: Annexin V-Cy3/6-CFDA staining, SW480; format: cell-based, Human; conditions: EC50 concentration, 24 and 48 h
Experimental: (§1) The presence of phosphatidylserine at the cell surface was detected by phosphatidylserine binding protein annexin V conjugated with Cy3 using the commercially available Annexin V-Cy3 apoptosis detection kit (APOAC, Apoptosis Detection Kit, Sigma). […] The PBS and binding buffer were used to wash the adherent cells and the washed cell adherents were suspended in 50 µl of Ann-Cy3 and 6-CFDA. Then, the plates were incubated for 10 min in the dark. Afterwards, the excess label was removed by washing the cells with binding buffer. EVOS M7000 digital inverted fluorescence microscope (ThermoFisher Scientific; Waltham, MA, U.S.A.) was used to observe Ann-Cy3 and 6-CFDA-labeled cells. This assay allowed one to differentiate live cells (green), necrotic cells (red), and apoptotic cells (red nuclei and green cytoplasm). The percentage of cells reflecting apoptotic and necrotic cells was manually calculated. Data were collected for three replicates and used to calculate the respective means and standard deviations.

SW620 cells [2] = assay: Annexin V-Cy3/6-CFDA staining, SW620; format: cell-based, Human; conditions: EC50 concentration, 24 and 48 h
Experimental: as §1

SW480 cells [3] = assay: cells; conditions: Homo sapiens, SW480, 48 h
SW620 cells [4] = assay: cells; conditions: Homo sapiens, SW-620, 48 h
Hemolytic activity assay = format: cell-based; conditions: human, erythrocytes; 150 μM peptide; relative to 0.1% Triton X-100; read-out: %HC50 at 150 μM (percentage of hemolysis)
SW480 cells [5] = conditions: for EC50: 48 h; for percentage of viability SW480 cells: human, 150 µM
SW620 cells [6] = conditions: for EC50: 48 h; for percentage of cell viability SW620 cells: human, 150 µM

| Molecule | Annexin V-Cy3/6-CFDA staining result (SW480 cells [1]) | Annexin V-Cy3/6-CFDA staining result (SW620 cells [2]) | EC50 (SW480 cells [3]; read-out: EC50 SW480) [µM] | viability at 150 µM (SW480 cells [3]; read-out: percentage of viability SW480 cells) [%] | EC50 (SW620 cells [4]; read-out: EC50 SW620) [µM] | viability at 150 µM (SW620 cells [4]; read-out: percentage of cell viability SW620 cells) [%] | hemolysis at 150 μM (Hemolytic activity assay) [%] | EC50 (SW480 cells [5]) [µM] | percentage of viability SW480 cells (SW480 cells [5]) [%] | EC50 (SW620 cells [6]) [µM] | percentage of cell viability SW620 cells (SW620 cells [6]) [%] |
| --- | --- | --- | --- | --- | --- | --- | --- | --- | --- | --- | --- |
| O=c1[nH]cc(F)c(=O)[nH]1 [5-FU, 5-Fluorouracil] | Same results | Same results | 24.4 ± 0.82 | 18.9 | 11.9 ± 1.2 | 2.8 | – | – | – | – | – |
| FKPQSGGGKCF-NH2 [Loop1-HCoV-229E, FKPQSGGGKCF-NH2] | – | – | – | – | – | – | 9.2 | 125 ± 1.32 | 56.2 | > 150 | 55.2 |
| H-FLGWLFKVASK-NH2 [A4W-GGN5, FLGWLFKVASK-NH2, reference compound] | – | – | – | – | – | – | 23 | 98.6 ± 1.17 | 41.8 | 22.1 ± 1.63 | 32.2 |
| NNETYFNAVKP-NH2 [Loop1-PS2Aa, NNETYFNAVKP-NH2] | – | – | – | – | – | – | 18.1 | 23.8 ± 1.25 | 16 | 106 ± 1.67 | 46.8 |
| PARDVLNTTSG-NH2 [P264-G274, PARDVLNTTSG-NH2] | – | – | – | – | – | – | 12.2 | 90.98 ± 0.75 | 41.6 | 11.3 ± 0.52 | 16.5 |
| TYFNAVKPPITA-NH2 [Loop2-PS2Aa, TYFNAVKPPITA-NH2] | – | – | – | – | – | – | 9.4 | 93 ± 0.98 | 39.5 | 16 ± 0.69 | 24.1 |
